Measured values published in patent US20110003844A1, “REGULATION OF CARDIAC CONTRACTILITY AND HEART FAILURE PROPENSITY” (Children's Hospital Medical Center, priority 2003, published 2011).
Entries after “also recorded” stand apart in the source; their conditions may differ. Where two headings read alike, the source gives them in different places.

Experiments:
[1] = test system: adult wildtype mouse hearts; test: ex vivo working heart preparation, Ro-32-0432 infusion
Method: Mice from all genotypes or treatment groups were anesthetized with isoflurane, and echocardiography was performed using a Hewlett Packard 5500 instrument with a 15-MHZ microprobe. Echocardiographic measurements were taken on M-mode in triplicate from four separate mice per group. The isolated ejecting mouse heart preparation used in the present study has been described in detail previously (Gulick et al. (1997) Circ. Res. 80:655-664), as was the close-chested working heart model employed here (Lorenz et al. (1997) Am. J. Physiol. 272:H1137-H1146).
The relatively selective PKCα/β inhibitory compound Ro-32-0432 [2-{8-[(Dimethylamino)methyl]-6,7,8,9-tetrahydropyrido[1,2-a]indol-3-yl}-3-(1-methylindol-3-yl)maleimide, HCl Salt] [3-{8-[(Dimethylamino)methyl]-6,7,8,9-tetrahydropyrido[1,2-a]indol-10-yl}-4-(1-methylindol-3-yl)-1H -pyrrole-2,5-dione, HCl Salt] was used as a means of directly examining the effects of acute PKCα inhibition on cardiac function and contractility using an ex vivo working heart preparation. The working heart preparation separates the inherent pump function of the heart from potential alterations in total vascular resistance as might occur if the drug were infused in vivo.
Working adult wildtype mouse hearts were infused with vehicle control (10% DMSO) or Ro-32-0432 in 10% DMSO at concentrations ranging between 4×10^−10 through 4'10^−6M. Four animals were analyzed in the Ro-32-0432 group and compared with three animals in the vehicle control group. […] The average heart rate of the vehicle and drug treated groups was 351+/=3 and 292+/−6 beats per minute, respectively. […] The approximate 20% change in acute contractile performance in the Ro-32-0432 treated group is similar to the increase in cardiac function observed in PKCα null mice.

[2] = test system: normal Sprague-Dawley and Lewis rats; test: in vivo cardiac contractility and hemodynamics in anesthetized normal rats; parameters: species or system rat
Method: Selected PKCα inhibitors are evaluated in both naive rats and rats with myocardial infarction (MI) for effects on cardiac contractility and hemodynamics. The effects of inhibitors on cardiac contractility and hemodynamics are evaluated in naïve and MI rats as follows. The animals are anesthetized with isoflurane. A femoral artery is isolated and cannulated for the measurement of systemic blood pressure. A jugular vein is isolated and cannulated for the intravenous infusion of inhibitor. The right carotid artery is isolated and a Millar conductance catheter is inserted to the left ventricle (LV) of the heart. The LV systolic pressure, end-diastolic pressure, +maximum dP/dt, −minimum dP/dt, and heart rate are derived from the LV pressure waveform. Mean arterial blood pressure is derived from the systemic blood pressure waveform. Data are recorded continuously and derived using computerized data acquisition software (Notocord or Powerlab). After a period of stabilization, PKCα inhibitors are infused at the following infusion doses in naïve rats: 0.1, 0.3, 1.0, 3.0, 10, 30, 100, 300 and 1000 nmol/kg/min. The infusion of each dose is allowed to run for at least five minutes. In MI rats, the infusion doses are as follows: 10, 30, 100, 300, and 1000 nmol/kg/min for at least five minutes. Equivalent infusion volumes are administered to separate, vehicle-control naïve and MI animals. At the end of the test infusions, 5.0 μg/kg/min of dobutamine is infused.

[3] = test system: PKC isoforms; conditions: cited from earlier work
[4] = test system: PKCα-GFP; test: translocation of PKCα-GFP indicator polypeptide, confocal microscopy; format: cell-based; conditions: neonatal rat cardiomyocytes, PMA 60 minutes
Method: A PKCα indicator was prepared by operably linking a nucleotide sequence encoding PKCα to a nucleotide sequence encoding green fluorescence protein (GFP). An expression cassette comprising the PKCα-GFP nucleotide sequence was prepared. Adenovirus comprising the PKCα-GFP expression cassette was prepared.
Neonatal rat cardiomyocytes were cultured in plastic dishes and incubated until the appropriate density was reached. The cardiomyocytes were infected with an adenovirus encoding PKCα-GFP. The cultures were incubated for 24 hours. After 24 hours the cells were incubated with either DMSO alone (the vehicle treatment) or DMSO and PMA for 60 minutes. The cells were fixed and examined by confocal microscopy.

[5] = molecular target: T1, PKCα (Rattus norvegicus, UniProt P05696); test: confocal immunohistochemistry of PKCα localization in adult cardiomyocytes; format: cell-based; conditions: adult rat cardiomyocytes in culture, acute PMA stimulation
T1 construct: confocal micrographs of PKCα protein localization in adult rat cardiac myocytes at baseline (PKCα) or after PMA; endogenous in cells; host or cells: adult rat cardiomyocytes in culture

[6] = test system: isolated chicken ventricular myocytes; conditions: 1 μM drug; cited from earlier work
[7] = test system: wildtype mouse hearts; test: ex vivo working heart preparation, acute PMA infusion, wildtype hearts
Method: (§1) Hearts were isolated from four wild-type and four PKCα −/− (PKCα null) transgenic mice. The isolated hearts were infused with PMA at 9 different concentrations ranging from 8×10^−11 through 8×10^−7 M. Acute PMA infusion of each concentration occurred for a 7 minute period. The hearts were measured for maximal and minimal dP/dt in systole and diastole respectively.

[8] = test system: PKCα−/− hearts; test: ex vivo working heart preparation, acute PMA infusion, PKCα null hearts; parameters: species or system mouse
Method: as §1

[9] = test system: isolated cardiac myocytes and whole guinea-pig hearts; conditions: cited from earlier work
[10] = test system: isolated ventricular myocytes from adult rats; conditions: 10^−7 M, 1 Hz, 1 mM calcium; cited from earlier work
[11] = test system: MI rats; test: in vivo cardiac contractility in anesthetized rats with myocardial infarction; parameters: species or system rat
Method: Selected PKCα inhibitors are evaluated in both naive rats and rats with myocardial infarction (MI) for effects on cardiac contractility and hemodynamics.
Male, Sprague-Dawley or Lewis rats weighing between 225-500 gm are anesthetized with isoflurane and an MI is induced as follows. A thoracotomy at the fourth or fifth intercostal space is done, the heart is exposed and the pericardium is opened. A 5-0 suture is placed around the left descending coronary artery 2-4 mm from its origin and permanently tied. The ribs, muscle and skin are separately closed and the animal is allowed to recover. Twenty to twenty-three weeks after surgery the animals are used to evaluate the effects of PKCα inhibitors on cardiac contractility and hemodynamics.
The effects of inhibitors on cardiac contractility and hemodynamics are evaluated in naïve and MI rats as follows. The animals are anesthetized with isoflurane. A femoral artery is isolated and cannulated for the measurement of systemic blood pressure. A jugular vein is isolated and cannulated for the intravenous infusion of inhibitor. The right carotid artery is isolated and a Millar conductance catheter is inserted to the left ventricle (LV) of the heart. […] Data are recorded continuously and derived using computerized data acquisition software (Notocord or Powerlab). […]

[12] = 1000 nmol/kg/min i.v. infusion, 5 min, n=3

2-{8-[(Dimethylamino)methyl]-6,7,8,9-tetrahydropyrido[1,2-a]indol-3-yl}-3-(1-methylindol-3-yl)maleimide, HCl Salt [Ro-32-0432]
change in acute contractile performance ([1]; Ro-32-0432 treated group, similar to PKCα null mice): ~20% | average heart rate of drug treated group ([1]; during infusion, 295+/−26 before treatment): 292+/−6 beats per minute | increase in acute contractile function, measured as maximum dP/dt ([1]; infused at 4×10^−10 to 4×10^−6 M, 7 min per concentration, values summated, average dosage approx 1×10^−8 M, P<0.05): 20% | increase in left ventricular pressure developed ([1]; infused at 4×10^−10 to 4×10^−6 M, values summated, average dosage approx 1×10^−8 M, P<0.05): 20% | acute cardiac contractility upon infusion (FIG. 38) ([1]; infusion vs baseline, p<0.05): statistically significant increase

CN(C)C[C@@H]1CCn2cc(c3ccccc32)C2=C(C(=O)NC2=O)c2cn(c3ccccc23)CCO1 [LY333531]
maximum dP/dt increase compared to baseline [2, 12]: 28% | minimum dP/dt increase compared to baseline [2, 12]: 17% | heart rate ([2]; 1000 nmol/kg/min, baseline 315±17, not statistically significant): 294±8 beats per minute

CNC[C@@H]1CCn2cc(c3ccccc32)C2=C(C(=O)NC2=O)c2cn(c3ccccc23)CCO1 [LY338522]
inhibition of the PKC isoforms [3]: effective in inhibiting the PKC isoforms

CCCCCCCCCCCCCC(=O)O[C@@H]1[C@@H](C)[C@@]2(O)[C@@H](C=C(CO)C[C@]3(O)C(=O)C(C)=C[C@@H]23)[C@@H]2C(C)(C)[C@]12OC(C)=O [PMA, phorbol myristate acetate]
PKCα-GFP localization [4]: highly localized and punctate staining pattern; also recorded: robust redistribution of PKCα-GFP | PKCα protein localization [5]: rapid translocation | maximum decrease in the amplitude of cell shortening [6]: 54% | contractile performance (Maximum dP/dt or Minimum dP/dt) ([7]; 8×10^−11 through 8×10^−9 M): essentially no effect | functional performance ([7]; concentrations higher than 8×10^−9 M): marked decrease in functional performance | functional performance ([8]; highest concentrations of PMA): only a mild depression in functional performance | inotropic effect ([8]; low doses of PMA): immediate positive inotropic effect | inotropic response ([9]; 10^−12 M PMA): significant positive inotropic response | inotropic response ([9]; concentrations higher than 10^−10 M PMA): negative inotropic response | twitch amplitude, of control [10]: approximately 60%

[H]/N=C(/N)SCCCn1cc(C2=C(c3cn(C)c4ccccc34)C(=O)NC2=O)c2ccccc21 [Ro-31-8220]
inotropic benefit compared with dobutamine ([11]; dobutamine 5.0 μg/kg/min for 5 minutes): greater than that seen with dobutamine | percent increase in maximum dP/dt from baseline ([11]; dose dependent i.v. infusion 10-1000 nmol/kg/min, significance (P<0.05) at 300 nmol/kg/min, n=4): 21%
